According to US8476221B2, “Methods and compositions for the treatment of metabolic disorders” (Halimed Pharmaceuticals, Inc., priority 2011, dated 2013):
Non-standard residues stand in square brackets, D forms with d. Residues, ends and D or L forms follow the SMILES beside them. *: point of attachment. Tle = CC(C)(C)[C@H](N)C(=O)O; X1 = CCNCCCC(=O)*

What was measured:
[1] = Toxicity study in monkeys, serum chemistry (cholesterol, triglycerides, liver enzymes); format: in vivo
Experimental: A study was conducted to evaluate toxicity in monkeys with HPI-363 at doses of 0.05 to 5 mg/kg. The compound was administered as a slow IV push over 20 to 30 seconds. Six animals (3 males and 3 females) approximately 2 years old and weighing 2.1-2.5 kilograms were dosed once daily for 14 days. Blood chemistry was collected on Days 1-15. […] A reduction of 27%-40% in levels of cholesterol and triglycerides respectively from pre-dose was observed over 15 days. The lipid-lowering effect occurred within a 12 hr-period.

[2] = Body weight and food intake in Sprague-Dawley and obese Zucker (fa/fa) rats; format: in vivo; settings: for Avg. Wt. Change (g) Days 1-10 / Food Consumption. (g) Days 1-10: 1 mg/kg IV daily Days 1-10; for Avg. Wt. Change (g) Days 11-20 / Food Consumption. (g) Days 11-20: saline Days 11-20 after 1 mg/kg IV daily Days 1-10
Experimental: Male Sprague-Dawley (SD, Harlan Laboratories) rats (210-220 g at initiation of experiments) and genetically obese Zucker (fa/fa) (ZF, Harlan Laboratories) rats (210-220 g at initiation of experiments) were housed individually under a 12 h:12 h light:dark schedule (lights on at 7:00 AM). All compound administration, animal and food weighing were performed between noon and 1 PM (during the light phase of the animals' circadian illumination schedule). Each rat was provided standard rat chow and water ad libitum throughout the experiments.
Each animal received either 1 mg/kg HPI-363 dissolved in saline IV (Treated) or saline (Vehicle or Untreated) for ten consecutive days followed by daily injections of saline for ten additional days. At the start of the experiment, each animal was weighed and single-housed with rat chow and water, with subsequent weighing occurring at 24 hr increments for 20 days. For food intake, 100 g of rat chow was placed in each animal's hopper and leftover chow in the hopper was collected and weighed every 24 hr for 20 days at the time of animal weighing. Chow was then replenished to 100 g each day. As a monitor of the general health of the animals, rats were observed twice daily.

NT1 receptor = NT1 receptor (Homo sapiens, UniProt P30989); settings: receptor binding studies; cited from earlier work
NT2 receptor = NT2 receptor (Homo sapiens, UniProt O95665); settings: receptor binding studies; cited from earlier work
NT2 receptor, sequence (O95665 whole entry): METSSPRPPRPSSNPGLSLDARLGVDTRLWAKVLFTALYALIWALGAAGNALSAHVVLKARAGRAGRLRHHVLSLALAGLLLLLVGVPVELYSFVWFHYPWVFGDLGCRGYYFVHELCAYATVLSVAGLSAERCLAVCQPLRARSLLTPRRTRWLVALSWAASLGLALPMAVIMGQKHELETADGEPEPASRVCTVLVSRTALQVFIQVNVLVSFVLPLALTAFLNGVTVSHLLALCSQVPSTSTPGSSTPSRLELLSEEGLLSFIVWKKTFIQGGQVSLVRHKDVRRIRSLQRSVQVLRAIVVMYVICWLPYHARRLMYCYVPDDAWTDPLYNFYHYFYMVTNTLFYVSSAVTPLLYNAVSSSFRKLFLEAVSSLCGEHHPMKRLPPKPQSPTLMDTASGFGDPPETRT

NT1 receptor, sequence (P30989 whole entry): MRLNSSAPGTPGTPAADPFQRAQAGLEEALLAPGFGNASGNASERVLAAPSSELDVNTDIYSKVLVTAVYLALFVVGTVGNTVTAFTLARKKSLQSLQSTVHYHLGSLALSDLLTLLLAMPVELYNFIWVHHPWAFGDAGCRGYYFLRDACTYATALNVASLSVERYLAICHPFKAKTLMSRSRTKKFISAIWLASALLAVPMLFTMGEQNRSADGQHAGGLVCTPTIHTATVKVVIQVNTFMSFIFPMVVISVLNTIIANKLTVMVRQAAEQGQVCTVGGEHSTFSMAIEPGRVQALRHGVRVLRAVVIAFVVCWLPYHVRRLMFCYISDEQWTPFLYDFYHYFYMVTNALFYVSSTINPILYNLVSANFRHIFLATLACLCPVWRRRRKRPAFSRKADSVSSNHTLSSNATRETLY

| Compound | Time in which the lipid-lowering effect occurred ([1]; 0.05 to 5 mg/kg IV) | Effect on cholesterol and triglycerides (serum chemistry) ([1]; 0.05 to 5 mg/kg IV once daily for 14 days) | Liver enzymes ([1]; 0.05 to 5 mg/kg IV once daily for 14 days, normalized within the 15 days of the study) | Reduction in levels of cholesterol from pre-dose ([1]; 0.05 to 5 mg/kg slow IV push once daily for 14 days, over 15 days) | General health, observed twice daily ([2]; SD and ZF rats, 20 days) | Avg. Wt. Change (g) Days 1-10 ([2]; Sprague-Dawley (SD) rats) | Food Consumption. (g) Days 1-10 ([2]; Sprague-Dawley (SD) rats) | Avg. Wt. Change (g) Days 11-20 ([2]; Sprague-Dawley (SD) rats) | Food Consumption. (g) Days 11-20 ([2]; Sprague-Dawley (SD) rats) | Avg. Wt. Change (g) Days 1-10 ([2]; Zucker fa/fa (ZF) rats) | Food Consumption. (g) Days 1-10 ([2]; Zucker fa/fa (ZF) rats) | Avg. Wt. Change (g) Days 11-20 ([2]; Zucker fa/fa (ZF) rats) | Food Consumption. (g) Days 11-20 ([2]; Zucker fa/fa (ZF) rats) | Food intake ([2]; both SD and ZF rats, 1 mg/kg IV Days 1-10) | Weight gain ([2]; both SD and ZF rats, 1 mg/kg IV Days 1-10, maintained after cessation (Days 11-20)) | Affinity for the NT1 receptor (NT1 receptor) | Affinity for the NT2 receptor (NT2 receptor) |
| --- | --- | --- | --- | --- | --- | --- | --- | --- | --- | --- | --- | --- | --- | --- | --- | --- | --- |
| CCNCCCC(=O)N[C@@H](CCCNC(=N)N)C(=O)N1CCC[C@H]1C(=O)N[C@@H](Cc1c[nH]c2ccccc12)C(=O)N[C@H](C(=O)N[C@@H](CC(C)C)C(=O)O)C(C)(C)C [HPI-363] (X1-RPW[Tle]L-OH) | ≤ 12 h | dose dependent effect | transient rise | 27% | No deviations from normal affect | 17.4 g | 148.5 g | 40.0 g | 222.0 g | 54.6 g | 252.7 g | 88.5 g | 402.0 g | decreased food intake | inhibition of weight gain | – | – |
| Lys-(psiCH2NH)-Lys-Pro-Trp-Ter-Leu-Leu-OEt [PD149163] | – | – | – | – | – | – | – | – | – | – | – | – | – | – | – | has affinity | no detectable affinity |
